The text below walks through data of patent US8568802B2, “Process for producing enriched fractions of tetrahydroxycurcumin and tetrahydrotetrahydroxy-curcumin from the extracts of Curcuma longa” (Laila Impex, priority 2005, dated 2013).

Data set [1] deals with 5-Lipoxygenase. The experiment in a line: 5-Lipoxygenase inhibitory activity (colorimetric, ferric xylenol orange). It counts as biochemical. The method, then:
5-Lipoxygenase activity: The enriched fraction of tetrahydroxycurcumin mixture, pure TC and tetrahydrotetrahydroxycurcumin fraction were screened for their 5-Lipoxygenase inhibitory potential using colorimetric method. The assay mixture contained 50 mM phosphate buffer pH 6.3, 5-Lipoxygenase, various concentrations of test substances in dimethyl sulphoxide and linoleic acid in a total volume of 0.5 mL, after 5 min incubation of above reaction mixture, 0.5 mL ferric xylenol orange reagent was added and OD was measured after two minutes at 585 nm using spectrophotometer. […] Percent inhibition was calculated by comparing absorbance of test solution with that of control.

For data set [2], the system named is carrageenin induced paw edema. The experiment in a line: Anti-inflammatory activity (carragenin induced paw edema method). It counts as in vivo, Albino wistar rats. The note with it: at 25 mg concentration, oral, paw volume 3 h after carrageenin. The protocol: The invention also describes use of enriched tetrahydroxycurcumin fraction containing 70-100% of TC for treating anti-inflammatory conditions.
Anti-inflammatory activity (Carragenin induced paw edema method): Prior to the experiment all the animals (Albino wistar rats of either sex weighing between 180-300 g) fasted at ad libitum water and were weighed, numbered and randomly divided into groups, each containing 3 animals. Initial paw volumes were measured using plethesmometer and noted. All the groups were treated with corresponding test substance orally using gastric tube. Control group was treated with 10 mL/Kg vehicle (0.5%, carboxymethyl cellulose sodium salt). After 30 minutes, all the animals were injected subcutaneously at subplantar region of left hind paw 1% carrageenin 0.1 mL using hypodermic needle. All the animals were administered water 20 mL/Kg body weight and kept devoid of water for 3 h (maintained uniform hydration). After 3 h, paw volumes of all the animals were measured twice and average volume from two measurements were recorded. The % of inhibition of paw edema was calculated by comparing paw edema of test substance treated groups with that of control groups.

In the case of `CC(Cc1ccc(O)c(O)c1)C(C)Cc1ccc(O)c(O)c1` (centres unmarked) [NDGA, Nordihydroguaiaretic acid], the “% of inhibition (5-Lipoxygenase)” value in data set [1] (concentration 24 μg/mL) is listed as 60%. With `O=C(/C=C/c1ccc(O)c(O)c1)CC(=O)/C=C/c1ccc(O)c(O)c1` [Pure tetrahydroxycurcumin (TC), 1,7-Bis(3,4-dihydroxyphenyl)-1,6-heptadiene-3,5-dione], the melting point is 302 to 304 °C. The “% of inhibition (5-Lipoxygenase)” value in data set [1] (concentration 16 μg/mL) is 60%.

As for `O=C(O)Cc1ccccc1Nc1c(Cl)cccc1Cl` [diclofenac sodium], in data set [2], the “% inhibition of paw edema” value came out at 63.10%. For Acetyl-keto-boswellic acid [AKBA], the “% of inhibition (5-Lipoxygenase)” value in data set [1] (concentration 41 μg/mL) was 55%.
